Data published in patent publication US10285947B2, “Lyophilized preparations of melphalan flufenamide” (priority 2012, dated 2019).
Counter-ions that a name gives are not always drawn.

How the values were obtained:
[1] = Stability of previous preparation in DMA in a glucose solution; assay type: physicochemical; conditions: dissolved in DMA (dimethylacetamide) in a glucose solution
Description: In previous preparations, melphalan flufenamide was obtained from synthesis as a white powder in crystalline form. This crystalline form can only be dissolved in highly acidic aqueous solutions, which for practical manufacturing purposes is impossible. […] Therefore, previously melphalan flufenamide was instead dissolved in DMA (dimethylacetamide) in a glucose solution. The preparation is feasible but is unstable: 7% degradation/h. Furthermore, dimerization occurs and the solution turns bright yellow. This preparation was, however, unreliable and the polymerization rate varied in an unacceptable manner.

tumors = conditions: even at lower concentrations than melphalan; cited from earlier work
[2] = Dissolution rate of lyophilized J1/sucrose in 5% glucose solution (Example 1); assay type: physicochemical; conditions: lyophilized 0.1 mg J1 and 0.2 mg sucrose, 0.5 ml 5% glucose solution
Experimental: The speed of dissolution of melphalan flufenamide hydrochloride (J1) by addition of sucrose to the freeze-drying process of J1 was tested. Sucrose is a formulation agent Generally Considered As Safe (GRAS) according to the FDA (US Food and Drug Administration).
A solution of J1 (5 mg) was made in tert-butanol:water 1:1 (5 ml). 100 μl of the solution was added to a vial containing 0.2 mg sucrose. The vial was covered with aluminium foil and frozen on dry ice-acetone. The vial consisted of 0.1 mg J1 and 0.2 mg sucrose. The vial with sample was thereafter freeze-dried overnight. Freeze-drying was performed on a Leybold Lyovac GT2 equipment.
A 5% glucose solution (100 ml) was prepared and the internal marker 3-methoxy-benzoic acid (0.8 mg/ml) was added to the solution.
0.5 ml of the glucose solution from step 2, was added to the freeze-dried vial with J1 sample from step 1. The vial was shaken at room temperature for 15 seconds and thereafter filtered and transferred to a glass vial for J1 concentration measurement, with HPLC. The amount of dissolved J1 was determined using HPLC and a calibration curve.

[3] = Stability test of J1 solution (HPLC), Example 6; assay type: physicochemical
Experimental: Stability of the solution containing J1 and tert-butanol:water, 1:1 (v/v), was tested. A solution comprising tert-butanol:water 1:1 (v/v) and J1 at a concentration of 1 mg/ml, was left at room temperature for 5 days.

[4] = tert-butanol:water 1:1 (v/v), 1 mg/ml, room temperature, 5 days

| Compound | degradation [1] [% degradation/h] | cell killing activity against tumors (tumors) | % of J1 dissolved in 15 seconds ([2]; room temperature) | concentration of J1 dissolved in the glucose solution during 15 seconds ([2]; shaken at room temperature 15 seconds) [µg/mL] | degradation compared with tert-butanol:water solution ([3]; J1 dissolved in an acidic ethanol-water solution) | amount of J1 by HPLC signal after 5 days [3, 4] [%] | decrease of J1 HPLC signal [3, 4] [%] | amount of J1 by HPLC signal, initial ([3]; tert-butanol:water 1:1 (v/v), 1 mg/ml, room temperature, start) [%] |
| --- | --- | --- | --- | --- | --- | --- | --- | --- |
| CCOC(=O)[C@H](Cc1ccc(F)cc1)NC(=O)[C@@H](N)Cc1ccc(N(CCCl)CCCl)cc1 [melphalan flufenamide, melphalanyl-L-p-fluorophenylalanine ethyl ester] | 7 | increased cell killing activity | – | – | – | – | – | – |
| CCOC(=O)[C@H](Cc1ccc(F)cc1)NC(=O)[C@@H](N)Cc1ccc(N(CCCl)CCCl)cc1 [Sample J1, melphalanyl-L-p-fluorophenylalanine ethyl ester hydrochloride] | – | – | approximately 40% | 80 | much more rapid | 85.5 | 11.7 | 97.2 |
